Patent publication US10150737B2, “Compounds for controlling arthropods” (priority 2013, dated 2018)

Tests used:
[1] = logP determination by HPLC on a reversed-phase column (C18); assay type: physicochemical; conditions: for log P: HPLC-MS; for logP^a): HPLC-MS method a); for logP: HPLC, C18 reversed phase, acetonitrile/water with formic acid, EEC Directive 79/831 Annex V.A8
Myzus persicae = Myzus persicae - spray test; assay type: in vivo; conditions: Chinese cabbage leaf discs, after 6 days
Description: Solvent: 78 parts by weight of acetone and 1.5 parts by weight of dimethylformamide
Emulsifier: alkylaryl polyglycol ether
To produce an appropriate active ingredient formulation, 1 part by weight of active ingredient is dissolved using the specified parts by weight of solvent and made up with water containing an emulsifier concentration of 1000 ppm until the desired concentration is attained. To produce further test concentrations, the preparation is diluted with emulsifier-containing water.
Discs of Chinese cabbage leaves (Brassica pekinensis) infested by all stages of the green peach aphid (Myzus persicae) are sprayed with an active ingredient formulation of the desired concentration.
After 6 days, efficacy in % is determined. 100% means that all the aphids have been killed; 0% means that none of the aphids have been killed.

Phaedon cochleariae = Phaedon cochleariae - spray test; assay type: in vivo; conditions: larvae on Chinese cabbage leaf discs, after 7 days
Method in brief: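 Chinese cabbage leaf discs sprayed with compound formulated in acetone/DMF and water containing 1000 ppm emulsifier; once dry, infested with mustard beetle larvae. Efficacy (% larvae killed) scored after 7 days.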

Spodoptera frugiperda = Spodoptera frugiperda - spray test; assay type: in vivo; conditions: caterpillars on maize leaf discs, after 7 days
Method in brief: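 Maize leaf discs sprayed with compound formulated in acetone/DMF and diluted in water containing 1000 ppm alkylaryl polyglycol ether emulsifier, then infested with armyworm caterpillars after drying. Efficacy scored after 7 days as % caterpillars killed (100% all, 0% none).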

Tetranychus urticae = Tetranychus urticae - spray test, OP-resistant; assay type: in vivo; conditions: bean leaf discs, after 6 days
Method in brief: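 Compound dissolved in acetone/DMF, diluted with water containing 1000 ppm alkylaryl polyglycol ether emulsifier to test concentrations. Bean leaf discs infested with all stages of spider mites were sprayed; % kill determined after 6 days (100% = all mites dead, 0% = none).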

Ctenocephalides felis [2] = assay: Ctenocephalides felis - in vitro contact tests with adult cat fleas; assay type: in vivo; conditions: application rate 5 μg/cm2 (=500 g/ha); after 48 h; fleas dead or moribund
Description: For the coating of the test tubes, 9 mg of active ingredient are first dissolved in 1 ml of acetone p.a. and then diluted to the desired concentration with acetone p.a. 250 μl of the solution are distributed homogeneously on the inner walls and base of a 25 ml test tube by turning and rocking on an orbital shaker (rocking rotation at 30 rpm for 2 h). With 900 ppm active ingredient solution and internal surface area 44.7 cm^2, given homogeneous distribution, an area-based dose of 5 μg/cm^2 is achieved.
After the solvent has evaporated off, the tubes are populated with 5-10 adult cat fleas (Ctenocephalides felis), sealed with a perforated plastic lid and incubated in a horizontal position at room temperature and ambient humidity. After 48 h, efficacy is determined. To this end, the test tubes are stood upright and the fleas are knocked to the base of the tube. Fleas which remain motionless at the base or move in an uncoordinated manner are considered to be dead or moribund.
100% efficacy means that all the fleas were dead or moribund. 0% efficacy means that no fleas were harmed.

Boophilus microplus = Boophilus microplus - injection test; assay type: in vivo; conditions: application rate 20 μg/animal; injection into engorged adult female ticks; after 7 days
Method in brief: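 Active ingredient in DMSO, 1 μl injected into the abdomen of 5 engorged adult female ticks, then held in a climate-controlled room. Efficacy scored after 7 days from laying of fertile eggs, with non-fertile-looking eggs kept about 42 days for larval hatch; 100% means no fertile eggs.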

Ctenocephalides felis [3] = assay: Ctenocephalides felis - oral test; assay type: in vivo; conditions: application rate 100 ppm in citrated cattle blood; after 2 days
Method in brief: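 Compound in DMSO diluted into citrated cattle blood, fed through a parafilm membrane to about 20 unfed adult cat fleas. Kill in % scored after 2 days (100% = all dead).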

Lucilia cuprina = Lucilia cuprina test; assay type: in vivo; conditions: application rate 100 ppm; L1 larvae; after 2 days
Method in brief: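 About 20 L1 larvae placed on minced horsemeat treated with compound, formulated in DMSO and diluted with water to test concentration. Kill in % scored after 2 days (100% = all larvae dead, 0% = none).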

Musca domestica = Musca domestica test; assay type: in vivo; conditions: application rate 100 ppm; adult houseflies; after 2 days
Description: Solvent: dimethyl sulphoxide
To produce an appropriate active ingredient formulation, 10 mg of active ingredient are mixed with 0.5 ml of dimethyl sulphoxide, and the concentrate is diluted with water to the desired concentration.
Vessels containing a sponge treated with sugar solution and the active ingredient formulation of the desired concentration are populated with 10 adult houseflies (Musca domestica).
After 2 days, the kill in % is determined. 100% means that all of the flies have been killed; 0% means that none of the flies have been killed.

[4] = reversed-phase column (C18), Table I-T3

| Structure (SMILES) | log P [1, 4] | efficacy (Myzus persicae; application rate 500 g/ha) | efficacy (Phaedon cochleariae; application rate 500 g/ha) | efficacy (Spodoptera frugiperda; application rate 500 g/ha) | efficacy (Tetranychus urticae; application rate 500 g/ha) | logP^a) [1] | logP^a) [1, 4] | efficacy (Ctenocephalides felis [2]) | efficacy (laying of fertile eggs) (Boophilus microplus) | efficacy (kill) (Ctenocephalides felis [3]) | efficacy (kill) (Lucilia cuprina) | efficacy (kill) (Musca domestica) | efficacy (Myzus persicae; application rate 100 g/ha) | efficacy (Phaedon cochleariae; application rate 100 g/ha) | efficacy (Spodoptera frugiperda; application rate 100 g/ha) | efficacy (Tetranychus urticae; application rate 100 g/ha) | logP^a) ([1]; reversed-phase column (C18)) | logP [1] |
| --- | --- | --- | --- | --- | --- | --- | --- | --- | --- | --- | --- | --- | --- | --- | --- | --- | --- | --- |
| N#CC1(NC(=O)c2cc(-c3cnn(-c4c(F)cc(C(F)(F)F)cc4Cl)c3)ccc2Cl)CC1 [I-T3-187] | 3.3 | 100% | 100% | 100% | 100% |  |  |  |  |  |  |  |  |  |  |  |  |  |
| O=C(NC1CC1)c1cc(-c2cnn(-c3ccc(C(F)(C(F)(F)F)C(F)(F)F)cc3Cl)c2)ccc1Cl [I-T3-31] |  |  | 100% | 100% | 100% | 4.3 | 4.3 | 100% | 100% | 100% | 100% | 100% |  |  |  |  |  |  |
| CCSc1cc(C(F)(F)F)cc(Cl)c1-n1cc(-c2ccc(Cl)c(C(=O)NC3(C#N)CC3)c2)cn1 [I-T3-170] | 3.7 |  |  |  |  |  |  |  |  |  |  |  | 100% | 100% | 100% | 100% |  |  |
| O=C(NC1CC1)c1cc(-c2cnn(-c3c(F)cc(C(F)(F)F)cc3Cl)c2)ccc1Cl [I-T3-186] | 3.6 | 90% | 100% | 100% | 100% |  |  |  |  |  |  |  |  |  |  |  |  |  |
| Cc1cc(C(F)(C(F)(F)F)C(F)(F)F)cc(C)c1-n1cc(-c2cc(C(=O)NC3CC3)ccc2F)cn1 [I-T3-13] |  |  |  |  |  | 4.5 | 4.5 | 100% | 100% | 80% |  |  |  |  |  |  |  |  |
| CC[S+]([O-])c1cc(C(F)(F)F)cc(Cl)c1-n1cc(-c2ccc(Cl)c(C(=O)NC3CC3)c2)cn1 (centres unmarked) [I-T3-179] | 3.0 |  |  |  |  |  |  |  |  |  |  |  | 100% | 100% |  | 100% |  |  |
| COCCNc1ncc(-c2cnn(-c3c(Cl)cc(C(F)(C(F)(F)F)C(F)(F)F)cc3Cl)c2)cc1C(=O)NC1CC1 [I-T3-138] | 4.1 |  |  |  |  |  |  | 100% |  |  |  |  |  | 83% | 100% | 90% | 4.1 |  |
| Cc1cc(C(F)(C(F)(F)F)C(F)(F)F)cc(C)c1-n1cc(-c2cccc(C(=O)NC3CC3)c2F)cn1 [I-T3-9] |  |  | 100% | 100% | 100% | 4.3 | 4.3 | 100% | 100% | 100% | 100% |  |  |  |  |  |  |  |
| Cc1cc(C(F)(C(F)(F)F)C(F)(F)F)cc(C)c1-n1cc(-c2cncc(C(=O)NC3(C#N)CC3)c2)cn1 [I-T3-8] |  | 90% | 100% | 100% | 100% | 3.4 | 3.4 |  | 100% | 100% | 100% | 100% |  |  |  |  |  |  |
| N#CC1(NC(=O)c2cc(-c3cc(-c4c(Cl)cc(C(F)(C(F)(F)F)C(F)(F)F)cc4Cl)on3)ccc2Cl)CC1 [I-T23-2] |  |  | 100% | 100% | 100% |  |  | 100% | 100% | 100% | 100% | 100% |  |  |  |  |  | 4.8 |
| Cc1cc(C(F)(C(F)(F)F)C(F)(F)F)cc(C)c1-c1cc(-c2ccc(Cl)c(C(=O)NCC(F)(F)F)c2)on1 [I-T22-3] |  |  |  |  |  |  |  | 100% | 100% | 100% | 100% | 100% |  | 100% | 100% | 90% |  | 5 |
| Cc1cc(C(F)(C(F)(F)F)C(F)(F)F)cc(C(F)(F)F)c1-n1cc(-c2ccc(Cl)c(C(=O)NCC(F)(F)F)c2)cn1 [I-T3-84] |  |  |  |  |  | 4.7 | 4.7 | 100% | 100% | 100% | 100% | 100% |  | 100% | 100% | 100% |  |  |
| O=C(NC1CC1)c1cc(-c2cnn(-c3c(Cl)cc(C(F)(C(F)(F)F)C(F)(F)F)cc3Cl)c2)cnc1NC1CC1 [I-T3-137] | 3.4 |  |  |  |  |  |  | 100% | 100% | 100% | 80% | 100% |  | 100% | 100% | 90% | 3.4 |  |
| N#CC1(CNC(=O)c2cc(-c3cnn(-c4c(Cl)cc(C(F)(C(F)(F)F)C(F)(F)F)cc4C(F)(F)F)c3)ccc2Cl)CC1 [I-T3-199] |  |  |  |  |  |  |  | 100% |  |  |  |  |  |  |  |  |  |  |
| Cc1cc(C(F)(C(F)(F)F)C(F)(F)F)cc(C)c1-n1ccc(-c2ccc(Cl)c(C(=O)NC3CC3)c2)c1 [I-T46-2] |  |  |  |  |  |  |  | 100% | 100% | 100% | 100% |  |  | 100% | 100% |  |  | 5.0 |
| CCNC(=O)c1cc(-c2cnn(-c3c(Cl)cc(C(F)(F)F)cc3Cl)c2)cnc1C [I-T3-147] | 4.0 |  |  |  |  |  |  | 100% |  |  |  |  |  |  |  | 90% | 4.0 |  |
| CNc1ncc(-c2cnn(-c3c(Cl)cc(C(F)(C(F)(F)F)C(F)(F)F)cc3Cl)c2)cc1C(=O)NC1CC1 [I-T3-136] | 3.5 |  |  |  |  |  |  | 100% | 100% | 100% | 100% | 100% |  | 100% | 100% |  | 3.5 |  |
| N#Cc1cc(C(F)(F)F)cc(Cl)c1-n1cc(-c2ccc(Cl)c(C(=O)NC3CC3)c2)cn1 [I-T3-174] | 3.1 |  |  |  |  |  |  |  |  |  |  |  | 100% | 100% | 100% | 100% |  |  |
| O=C(NC1CC1)c1cccc(-c2cnn(-c3ncc(C(F)(F)F)cc3Cl)c2)c1 [I-T3-122] | 3.0 | 100% |  |  |  |  |  |  |  |  |  |  |  |  |  |  | 3.0 |  |
| Cc1cc(C(F)(C(F)(F)F)C(F)(F)F)cc(C)c1-n1cc(-c2cc(C(=O)NC3(C#N)CC3)c(Cl)cc2F)cn1 [I-T3-17] |  |  | 100% | 100% |  | 4.4 | 4.4 | 100% | 100% | 95% | 100% |  |  |  |  |  |  |  |
